Laboratory results reported in US20090247404A1, “METHOD FOR IMPROVING HARVESTABILITY OF CROPS” (priority 2006, published 2009).

How the values were obtained:
Assay type in all cases: in vivo
[1] = tested on: cotton (GOSHI, Gossypium hirsutum L.); assay: Test B1: field trial, preharvest application of harvest aids alone and with Compound 4 to cotton (cv. DP 434); conditions: for inhibition at 5 g/ha / inhibition at 10 g/ha / inhibition at 20 g/ha / inhibition at 1262 g/ha / inhibition at 421 g/ha: Gossypium hirsutum
Experimental: A field trial was conducted to evaluate the effects of mixtures of Compound 4 with commercial harvest aids on cotton (GOSHI, Gossypium hirsutum L.). Delta and Pine Land Co. cotton seeds (cv. ‘DP 434’) were planted in mid spring season, 3.8-cm deep in a fine-texture loam soil comprising 40% sand, 36% silt, and 24% clay. Soil organic matter was 1.8%; pH was 6.6. Plots were 9.1 m long by 3.0 m wide with rows spaced 96.5 cm apart. Seeds were spaced 10.2 cm apart within the rows. The field was managed using conventional tillage practices, and applications of herbicides and insecticides were used to maintain a healthy crop. The plots were arranged in a randomized complete block design with each treatment being replicated four times. Treatments were applied preharvest over the top of the crop in late summer, when approximately 65% of the bolls had opened, using a tractor-mounted sprayer delivering a spray volume of 140 L/ha at a pressure of 241 kPa. Treatments consisted of the commercial harvest aids tribufos, ethephon, and ethephon+AMADS alone and in combination with Compound 4, dissolved or suspended in water. Plants were evaluated for harvest aid effects including defoliation and regrowth inhibition at 4, 7, 14, and/or 22 days after application (DAA). Individual results were recorded and data reported as the means of the three replicates.
(§1) Results for Tests A, B1 and B2 are given in Table A, B1 and B2 respectively. Plants were visually evaluated for harvest aid effects of boll opening, defoliation, desiccation, and whole plant (basal and terminal) regrowth inhibition. “State of Defoliation (%)” represents a visual rating at a given DAA of the overall reduction in foliage on treated plants in a plot. It is based on a scale of 0 to 100%, where 0 represents an amount of foliage similar to control plants, and 100 indicates no leaves present. Plant regrowth assessments at a given DAA were made relative to appropriate controls after effects of defoliation were observed. Regrowth of the basal (“plant stalk”, below the top 15.3 cm of the plants) and terminal (“plant terminal”, top 15.3 cm of the plants) portions of the plants were separately evaluated on a visual rating scale of 0 to 100%, where 0 indicates no regrowth, and 100 indicates complete regrowth. The regrowth evaluations involved overall assessment of renewed or continued growth and development, which included: node and internodal development and elongation, and leaf formation, development and growth. These regrowth evaluations were recorded as “Regrowth %” and subsequently converted in the tables to “Regrowth Inhibition (%)”, which was calculated as 100%−YT, where YT equals the mean Regrowth % of three replicates for a respective treatment.

[2] = tested on: cotton (GOSHI, Gossypium hirsutum L.); assay: Test A: field trial, preharvest application of harvest aids alone and with Compound 4 to cotton (cv. Fibermax FM 989 RR); conditions: for Boll Opening (%) / Desiccation (%) / State of Defoliation (%): 841 g a.i./ha
Experimental: A field trial was conducted to evaluate the effects of mixtures of Compound 4 with commercial harvest aids on cotton (GOSHI, Gossypium hirsutum L.). Cotton seeds (cv. ‘Fibermax FM 989 RR’) were planted in mid spring season, 3.8 cm deep in a clay soil having 1.8% organic matter and a pH of 6.8. Plots were 9 m long by 3 m wide with rows spaced 96.5 cm apart. Seeds were spaced 10.2 cm apart within the rows. The field was managed using conventional tillage practices, and applications of herbicides and insecticides were used to maintain a healthy crop. The plots were arranged in a randomized complete block design with each treatment being replicated three times. Treatments were applied preharvest over the top of the crop in late summer, when approximately 65% of the bolls had opened, using a backpack sprayer delivering a spray volume of 140 L/ha using a pressure of 276 kPa. Treatments consisted of the commercial harvest aids tribufos and ethephon+AMADS alone and in combination with Compound 4, dissolved or suspended in water. The effects on the treated plants and untreated controls were recorded 4, 11 and 21 days after application. Plants were visually evaluated for harvest aid effects of boll opening, defoliation, desiccation, and whole plant (basal and terminal) regrowth inhibition. Results were calculated as the mean of the three replicates, based on a scale of 0 to 100 where 0 is no effect and 100 is complete expression of the effect.
as §1

[3] = tested on: cotton (GOSHI, Gossypium hirsutum L.); assay: Test B2: field trial, preharvest application of harvest aids alone and with Compound 4 to cotton (cv. DP 117BRIIRF); conditions: for inhibition at 5 g/ha / inhibition at 10 g/ha / inhibition at 20 g/ha / inhibition at 1262 g/ha / inhibition at 421 g/ha: Gossypium hirsutum, 336 h
Experimental: A field trial was conducted to evaluate the effects of mixtures of Compound 4 with commercial harvest aids on cotton (GOSHI, Gossypium hirsutum L.). Delta and Pine Land Co. cotton seeds (cv. ‘DP 117BRIIRF’) were planted in mid spring season, 2.0-cm deep in a clay soil. Plots were 12.19 m long by 3.86 m wide with rows spaced 96.5 cm apart. The field was managed using conventional tillage practices, and applications of herbicides and insecticides were used to maintain a healthy crop. The plots were arranged in a randomized complete block design with each treatment being replicated four times. Treatments were applied preharvest over the top of the crop in late summer, when approximately 65% of the bolls had opened, using a tractor-mounted sprayer delivering a spray volume of 140.3 L/ha at a pressure of 193 kPa. Treatments consisted of the commercial harvest aids tribufos, ethephon, and ethephon+AMADS alone and in combination with Compound 4, dissolved or suspended in water. Plants were evaluated for harvest aid effects including defoliation and regrowth inhibition at 4, 7, and 14 DAA. Individual results were recorded and data reported as the means of the three replicates.
as §1

[4] = plant terminal and plant stalk, 14 DAA
[5] = treatments including Compound 4

COC(=O)c1nc(C2CC2)nc(N)c1Cl [Compound 4, methyl 6-amino-5-chloro-2-cyclopropyl-4-pyrimidinecarboxylate]
State of Defoliation (%) ([1]; 5 g a.i./ha, 4 DAA): 13%
State of Defoliation (%) ([1]; 5 g a.i./ha, 7 DAA): 18%
State of Defoliation (%) ([1]; 5 g a.i./ha, 14 DAA): 23%
State of Defoliation (%) ([1]; 10 g a.i./ha, 4 DAA): 8%
State of Defoliation (%) ([1]; 10 g a.i./ha, 7 DAA): 18%
State of Defoliation (%) ([1]; 10 g a.i./ha, 14 DAA): 21%
State of Defoliation (%) ([1]; 20 g a.i./ha, 4 DAA): 13%
State of Defoliation (%) ([1]; 20 g a.i./ha, 7 DAA): 24%
State of Defoliation (%) ([1]; 20 g a.i./ha, 14 DAA): 23%
inhibition at 5 g/ha ([1]; 336 h, 5 g a.i./ha, 14 DAA, read-out: Plant Stalk (Below 15.3-cm) Regrowth Inhibition (%)): 100%
inhibition at 5 g/ha ([1]; 336 h, 5 g a.i./ha, 14 DAA, read-out: Plant Terminal (Top 15.3-cm) Regrowth Inhibition (%)): 100%
inhibition at 10 g/ha ([1]; 336 h, 10 g a.i./ha, 14 DAA, read-out: Plant Stalk (Below 15.3-cm) Regrowth Inhibition (%)): 100%
inhibition at 10 g/ha ([1]; 336 h, 10 g a.i./ha, 14 DAA, read-out: Plant Terminal (Top 15.3-cm) Regrowth Inhibition (%)): 100%
inhibition at 20 g/ha ([1]; 336 h, 20 g a.i./ha, 14 DAA, read-out: Plant Stalk (Below 15.3-cm) Regrowth Inhibition (%)): 100%
inhibition at 20 g/ha ([1]; 336 h, 20 g a.i./ha, 14 DAA, read-out: Plant Terminal (Top 15.3-cm) Regrowth Inhibition (%)): 100%
inhibition at 5 g/ha ([1]; 528 h, 5 g a.i./ha, 22 DAA, read-out: Plant Stalk (Below 15.3-cm) Regrowth Inhibition (%)): 100%
inhibition at 10 g/ha ([1]; 528 h, 10 g a.i./ha, 22 DAA, read-out: Plant Stalk (Below 15.3-cm) Regrowth Inhibition (%)): 100%
inhibition at 20 g/ha ([1]; 528 h, 20 g a.i./ha, 22 DAA, read-out: Plant Stalk (Below 15.3-cm) Regrowth Inhibition (%)): 100%
regrowth inhibition, addition of Compound 4 compared to ethephon, ethephon+AMADS or tribufos alone [1, 4]: dramatically increased
inhibition of basal and terminal regrowth [1, 5]: effective for inhibiting both basal and terminal regrowth
desiccation, combination with Compound 4 compared to ethephon+AMADS or tribufos alone ([2]; 11 days after application): increased
defoliation, combination with Compound 4 compared to ethephon+AMADS or tribufos alone ([2]; 21 days after application): dramatically increased
regrowth inhibition, combination with Compound 4 compared to ethephon+AMADS or tribufos alone ([2]; 21 days after application): dramatically increased
boll opening effects of the commercial harvest aids in combination with Compound 4 ([2]; compared to the untreated plants): did not interfere
inhibition of basal and terminal regrowth [2, 5]: effective for inhibiting both basal and terminal regrowth
State of Defoliation (%) ([3]; 5 g a.i./ha, 4 DAA): 3%
State of Defoliation (%) ([3]; 5 g a.i./ha, 7 DAA): 4%
State of Defoliation (%) ([3]; 5 g a.i./ha, 14 DAA): 10%
State of Defoliation (%) ([3]; 10 g a.i./ha, 4 DAA): 3%
State of Defoliation (%) ([3]; 10 g a.i./ha, 7 DAA): 4%
State of Defoliation (%) ([3]; 10 g a.i./ha, 14 DAA): 11%
State of Defoliation (%) ([3]; 20 g a.i./ha, 4 DAA): 4%
State of Defoliation (%) ([3]; 20 g a.i./ha, 7 DAA): 9%
State of Defoliation (%) ([3]; 20 g a.i./ha, 14 DAA): 15%
inhibition at 5 g/ha ([3]; 5 g a.i./ha, 14 DAA, read-out: Plant Stalk (Below 15.3-cm) Regrowth Inhibition (%)): 100%
inhibition at 5 g/ha ([3]; 5 g a.i./ha, 14 DAA, read-out: Plant Terminal (Top 15.3-cm) Regrowth Inhibition (%)): 97%
inhibition at 10 g/ha ([3]; 10 g a.i./ha, 14 DAA, read-out: Plant Stalk (Below 15.3-cm) Regrowth Inhibition (%)): 100%
inhibition at 10 g/ha ([3]; 10 g a.i./ha, 14 DAA, read-out: Plant Terminal (Top 15.3-cm) Regrowth Inhibition (%)): 100%
inhibition at 20 g/ha ([3]; 20 g a.i./ha, 14 DAA, read-out: Plant Stalk (Below 15.3-cm) Regrowth Inhibition (%)): 100%
inhibition at 20 g/ha ([3]; 20 g a.i./ha, 14 DAA, read-out: Plant Terminal (Top 15.3-cm) Regrowth Inhibition (%)): 100%
regrowth inhibition, addition of Compound 4 compared to ethephon, ethephon+AMADS or tribufos alone [3, 4]: dramatically increased
inhibition of basal and terminal regrowth [3, 5]: effective for inhibiting both basal and terminal regrowth

O=P(O)(O)CCCl [Ethephon, reference compound]
State of Defoliation (%) ([1]; 1262 g a.i./ha, 4 DAA): 54%
State of Defoliation (%) ([1]; 1262 g a.i./ha, 7 DAA): 73%
State of Defoliation (%) ([1]; 1262 g a.i./ha, 14 DAA): 79%
inhibition at 1262 g/ha ([1]; 336 h, 1262 g a.i./ha, 14 DAA, read-out: Plant Stalk (Below 15.3-cm) Regrowth Inhibition (%)): 90%
inhibition at 1262 g/ha ([1]; 336 h, 1262 g a.i./ha, 14 DAA, read-out: Plant Terminal (Top 15.3-cm) Regrowth Inhibition (%)): 75%
inhibition at 1262 g/ha ([1]; 528 h, 1262 g a.i./ha, 22 DAA, read-out: Plant Stalk (Below 15.3-cm) Regrowth Inhibition (%)): 22%
State of Defoliation (%) ([3]; 1262 g a.i./ha, 4 DAA): 58%
State of Defoliation (%) ([3]; 1262 g a.i./ha, 7 DAA): 63%
State of Defoliation (%) ([3]; 1262 g a.i./ha, 14 DAA): 48%
inhibition at 1262 g/ha ([3]; 1262 g a.i./ha, 14 DAA, read-out: Plant Stalk (Below 15.3-cm) Regrowth Inhibition (%)): 80%
inhibition at 1262 g/ha ([3]; 1262 g a.i./ha, 14 DAA, read-out: Plant Terminal (Top 15.3-cm) Regrowth Inhibition (%)): 60%

CCCCSP(=O)(SCCCC)SCCCC [Tribufos, S,S,S-tributylphosphorotrithioate, reference compound]
State of Defoliation (%) ([1]; 421 g a.i./ha, 4 DAA): 49%
State of Defoliation (%) ([1]; 421 g a.i./ha, 7 DAA): 76%
State of Defoliation (%) ([1]; 421 g a.i./ha, 14 DAA): 81%
inhibition at 421 g/ha ([1]; 336 h, read-out: Plant Stalk (Below 15.3-cm) Regrowth Inhibition (%)): 84%
inhibition at 421 g/ha ([1]; 336 h, read-out: Plant Terminal (Top 15.3-cm) Regrowth Inhibition (%)): 47%
inhibition at 421 g/ha ([1]; 528 h, read-out: Plant Stalk (Below 15.3-cm) Regrowth Inhibition (%)): 29%
Boll Opening (%) ([2]; 4 DAA): 70%
Desiccation (%) ([2]; 4 DAA): 32%
State of Defoliation (%) ([2]; 4 DAA): 68%
Boll Opening (%) ([2]; 11 DAA): 78%
Desiccation (%) ([2]; 11 DAA): 8%
State of Defoliation (%) ([2]; 11 DAA): 80%
State of Defoliation (%) ([2]; 21 DAA): 35%
inhibition at 841 g/ha ([2]; Gossypium hirsutum, 504 h, read-out: Regrowth Inhibition (%)): 25%
State of Defoliation (%) ([3]; 421 g a.i./ha, 4 DAA): 50%
State of Defoliation (%) ([3]; 421 g a.i./ha, 7 DAA): 56%
State of Defoliation (%) ([3]; 421 g a.i./ha, 14 DAA): 53%
inhibition at 421 g/ha ([3]; read-out: Plant Stalk (Below 15.3-cm) Regrowth Inhibition (%)): 81%
inhibition at 421 g/ha ([3]; read-out: Plant Terminal (Top 15.3-cm) Regrowth Inhibition (%)): 44%
